Data from ChEMBL document CHEMBL1153684, “Antiinflammatory -benzeneethanamines. III” (Bioorg Med Chem Lett, 1993).

Tests used:
Phospholipase A2 = Phospholipase A2 (Rattus norvegicus, UniProt P04055); experiment: Inhibitory activity against polymorphonuclear cell phospholipase-A2 in rat
[1] = target: T1, Polyunsaturated fatty acid 5-lipoxygenase (Rattus norvegicus, UniProt P12527); experiment: Inhibition of rat basophilic leukemia cell 5-lipoxygenase
T1 sequence (P12527 whole entry): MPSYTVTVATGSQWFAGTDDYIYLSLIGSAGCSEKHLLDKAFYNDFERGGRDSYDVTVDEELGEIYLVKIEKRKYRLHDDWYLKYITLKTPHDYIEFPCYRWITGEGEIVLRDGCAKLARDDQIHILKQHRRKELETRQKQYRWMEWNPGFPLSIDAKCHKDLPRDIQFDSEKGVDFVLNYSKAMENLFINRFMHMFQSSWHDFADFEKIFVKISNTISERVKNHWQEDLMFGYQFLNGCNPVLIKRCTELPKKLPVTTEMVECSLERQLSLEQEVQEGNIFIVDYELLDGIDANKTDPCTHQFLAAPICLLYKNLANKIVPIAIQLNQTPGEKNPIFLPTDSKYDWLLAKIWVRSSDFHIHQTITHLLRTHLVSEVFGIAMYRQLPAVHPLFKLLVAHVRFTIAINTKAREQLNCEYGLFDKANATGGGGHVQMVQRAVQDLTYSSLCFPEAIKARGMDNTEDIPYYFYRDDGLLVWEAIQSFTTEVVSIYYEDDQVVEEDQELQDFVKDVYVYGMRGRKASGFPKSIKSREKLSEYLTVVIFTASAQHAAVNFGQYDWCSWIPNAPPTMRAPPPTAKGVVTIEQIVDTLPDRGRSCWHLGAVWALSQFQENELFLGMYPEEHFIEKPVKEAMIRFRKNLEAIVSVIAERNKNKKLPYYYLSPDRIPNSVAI

Rattus norvegicus [2] = experiment: Compound was tested for its oral antiinflammatory activity in the rat carrageenan paw edema assay (CAR); format: functional
Rattus norvegicus [3] = experiment: Compound was tested for its antiinflammatory activity in the rat established adjuvant arthritis paw edema assay (EST ADJ ARTH), after oral administration; format: functional
Mus musculus [4] = experiment: Compound was tested for its oral antiinflammatory activity in the mouse contact sensitivity assay (CON SEN) at the specified dose, activity expressed as % inhibition at 50 mg/Kg; format: functional
Mus musculus [5] = organism: Mus musculus; experiment: Compound was tested for its oral antiinflammatory activity in the mouse contact sensitivity assay (CON SEN); format: functional
Rattus norvegicus [6] = experiment: Percent inhibition for its antiinflammatory activity in the rat carrageenan paw edema assay (CAR), % inhibition at 50 mg/Kg; format: functional
Mus musculus [7] = experiment: Percent inhibition for its antiinflammatory activity in the tetradecanoyl phorbol acetate mouse ear edema assay (TPA EAR); Inhibition at 100 […]; format: functional

Sequence of Phospholipase A2 (P04055 whole entry): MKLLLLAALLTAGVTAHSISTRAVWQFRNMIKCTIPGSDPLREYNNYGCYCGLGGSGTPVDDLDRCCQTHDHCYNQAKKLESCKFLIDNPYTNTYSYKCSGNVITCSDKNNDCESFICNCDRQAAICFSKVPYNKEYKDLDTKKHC

| SMILES | IC50 (Phospholipase A2) [µM] | IC50 [1] [µM] | ED30 (Rattus norvegicus [2]) [µM/kg] | ED50 (Rattus norvegicus [3]) [mg/kg] | inhibition in vivo at 50 mg/kg (Mus musculus [4]) [%] | ED35 (Mus musculus [5]) [mg/kg] | inhibition in vivo at 50 mg/kg (Rattus norvegicus [6]) [%] | Inhibition (Mus musculus [7]) [%] | ED30 (Rattus norvegicus [2]; Rattus norvegicus, po, read-out: ED30) [mg/kg] |
| --- | --- | --- | --- | --- | --- | --- | --- | --- | --- |
| Cl.NCC(CCCSc1ccc2ccccc2c1)c1ccc(F)cc1 (stereo not given) | 14 | 23 | >153.6 | – | – | – | – | – | – |
| Cc1ccc(SCCCCCC(CN)c2ccc(F)cc2)cc1.Cl (stereo not given) | 6.6 | 35 | 117.7 | – | – | – | – | – | – |
| Cl.NCC(CCCCSc1ccc2ccccc2c1)c1ccc(F)cc1 (stereo not given) | 2.4 | 130 | 171.3 | – | – | – | – | – | – |
| Cc1ccc(SCCCCC(CN)c2ccc(F)cc2)cc1.Cl (stereo not given) | 5.5 | 9.5 | 1.4 | 50 | 51.2 | 8.9 | 59 | 37 | 0.51 |
| CC(C)(C)c1ccc(SCCCCC(CN)c2ccc(F)cc2)cc1.Cl (stereo not given) | 4.8 | 230 | 153.8 | – | – | – | – | – | – |
| Cc1ccc(SCCCC(CN)c2ccc(F)cc2)cc1.Cl (stereo in doubt) | 54 | 75 | >172.8 | – | – | – | – | – | – |
| Cc1ccc(SCCCC(CN)c2ccc(F)cc2)cc1.Cl (stereo in doubt; 2) | 28.3 | 38 | 50 | – | – | – | – | – | – |
| NC1=NN(c2cccc(C(F)(F)F)c2)CC1 [BW-755C] | > 25 | – | – | – | – | – | – | – | – |
| C[C@@H]1C[C@H]2[C@@H]3CCC4=CC(=O)C=C[C@]4(C)[C@@]3(F)[C@@H](O)C[C@]2(C)[C@@]1(O)C(=O)CO [DEXAMETHASONE] | > 750 | > 25 | <2.5 | – | – | – | – | – | – |
| COc1ccc2c(c1)c(CC(=O)O)c(C)n2C(=O)c1ccc(Cl)cc1 [INDOMETHACIN] | – | > 250 | 2.8 | – | – | – | – | – | – |
| CCN(CC)CCCC(C)Nc1c2ccc(Cl)cc2nc2ccc(OC)cc12 (stereo not given) [QUINACRINE] | 100 | – | 5.8 | – | – | – | – | – | – |
